Measured values taken from the supplement of paper PMC10307832.

Experiments:
Experiment in all cases: relative viability (nuclei count vs DMSO), 5 days (fraction); higher = more cells survive
[1] = compound: CCOC1=CC=CC=C1N=NC2=C(NN(C2=O)C3=NC(=CS3)C4=CC=CC=C4)C [BAM7] + C[C@@H](Oc1cc(-c2cnn(C3CCNCC3)c2)cnc1N)c1c(Cl)ccc(F)c1Cl [Crizotinib] (partner 1 µM)
Outline: (§1)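 Five library-drug doses in √10 steps were combined with a fixed anchor-drug dose, or a single drug was given alone, by pin tool to lung cancer cell lines in 1536-well plates the day after seeding. Nuclei were stained and counted after 5 days. Relative viability is the nuclei count in treated wells over that in vehicle wells, taken as the median of duplicate plates.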

[2] = compound: CCn1c(-c2nonc2N)nc2c(C#CC(C)(C)O)ncc(OC[C@H]3CCCNC3)c21 + CC(=O)Nc1cccc(-n2c(=O)n(C3CC3)c(=O)c3c(Nc4ccc(I)cc4F)n(C)c(=O)c(C)c32)c1 [Trametinib] (partner 0.02 µM)
Outline: as §1

[3] = compound: CCn1c(-c2nonc2N)nc2c(C#CC(C)(C)O)ncc(OC[C@H]3CCCNC3)c21 + CC(=O)c1c(C)c2cnc(Nc3ccc(N4CCNCC4)cn3)nc2n(C2CCCC2)c1=O [Palbociclib] (partner 0.5 µM)
Outline: as §1

[4] = compound: CCn1c(-c2nonc2N)nc2c(C#CC(C)(C)O)ncc(OC[C@H]3CCCNC3)c21 + O=C(CCCCCCC(=O)Nc1ccccc1)NO [Vorinostat] (partner 1 µM)
Outline: as §1

Cell Line: UMC-11
- relative viability ([1]; first compound 0.5 µM): 0.661
- relative viability ([1]; first compound 5 µM): 0.786
- relative viability ([1]; first compound 15.81 µM): 0.624
- relative viability ([1]; first compound 50 µM): 0.636
- relative viability ([2]; first compound 0.01 µM): 0.765
- relative viability ([2]; first compound 0.03162 µM): 0.701
- relative viability ([2]; first compound 0.1 µM): 0.754
- relative viability ([2]; first compound 0.3162 µM): 0.754
- relative viability ([2]; first compound 1 µM): 0.618
- relative viability ([3]; first compound 0.01 µM): 0.292
- relative viability ([3]; first compound 0.03162 µM): 0.291
- relative viability ([3]; first compound 0.1 µM): 0.305
- relative viability ([3]; first compound 0.3162 µM): 0.329
- relative viability ([3]; first compound 1 µM): 0.339
- relative viability ([4]; first compound 0.01 µM): 0.423
- relative viability ([4]; first compound 0.03162 µM): 0.375
- relative viability ([4]; first compound 0.1 µM): 0.357
- relative viability ([4]; first compound 0.3162 µM): 0.316
- relative viability ([4]; first compound 1 µM): 0.346
